The values below come from US20140220100A1, “VACCINE COMPOSITION FOR TRANSDERMAL ADMINISTRATION” (NITTO DENKO CORPORATION, priority 2013, published 2014).

In the experiment the test system is IFN-γ-producing cells (spleen cells co-cultured with antigen peptide). The experiment in a line: Immunity Induction Test 1 in mouse (liquid formulation for external use), ELISPOT. In kind it is in vivo. The following applies: summary of Tables 1, 2 and 4; transdermal HER2/neu E75 peptide vaccine composition. As to the method: A cellulose non-woven fabric (area 0.8 cm^2) was attached to a middle part of an adhesive tape for fixing to prepare a composite substrate. The non-woven fabric part of the composite substrate was immersed with 67 μL of the liquid formulation for external use. Thus a sample for immunity induction test was prepared.
The liquid formulations for external use prepared as above described were used to perform an immunity induction test using a model mouse for immunological evaluation. The immunity induction level was evaluated by ELISPOT method. Specifically, the hair of the back skin of a mouse was cut, and the mouse was kept in a period for recovering from the skin damage. Thereafter, each sample was administered to the back skin of the mouse for a predetermined period, and then removed. After keeping the mouse for a predetermined day, the level of the cellular immunity induction specific for the antigen was evaluated. On a predetermined day after the administration, the spleen of the mouse was excised to prepare a suspension of the spleen cells. Spleen cells (3×10^6 cells/well) and an antigen peptide (100 μM) were added together with a culture solution into a well of ELISPOT plate containing an immobilized anti-mouse IFN-γ […], and co-cultured at 37° C. in 5% CO2 for 20 hours. The spot number of IFN-γ-producing cells was evaluated by ELISPOT method (the number of the spot/3×10^6 cells). The dosage of the liquid formulation for external use was all 67 μL as described above, and the administration was performed once (24 hr/week), the spleen was excised 6 days after the administration.
The results of the immunity induction test, and the measurement results of TSLP level and transepidermal water loss are shown in Table 1.

As to `CCCCCCCCCC(=O)O` [decanoic acid], the “promotion of induction of cellular immunity by addition of a pharmacologically acceptable acid as second cellular immunity induction promoter” value is “effective”.

On to `CC(C)CCCCCCCCCCCCCCC(=O)O` [isostearic acid], for which the “promotion of induction of cellular immunity by addition of a pharmacologically acceptable acid as second cellular immunity induction promoter” value is “effective”. Next, `CC(O)C(=O)O` (stereo not drawn) [lactic acid]: “effective”; `CCCCCCCCCCCC(=O)O` [lauric acid]: “effective”; `O=C(O)/C=C\C(=O)O` [maleic acid]: “effective”. For the molecule `O=C(O)CC(O)C(=O)O` (stereo not drawn) [malic acid], the “promotion of induction of cellular immunity by addition of a pharmacologically acceptable acid as second cellular immunity induction promoter” value was “effective”. To `CS(=O)(=O)O` [methanesulfonic acid] belongs “effective”; to `CCCCCCCCCCCCCC(=O)O` [myristic acid], “effective”; to `CCCCCCCC/C=C\CCCCCCCC(=O)O` [oleic acid], “effective”. Next, `CCCCCCCCCCCCCCCC(=O)O` [palmitic acid]: “effective”.

Regarding `O=C(O)c1ccccc1O` [salicylic acid], the “promotion of induction of cellular immunity by addition of a pharmacologically acceptable acid as second cellular immunity induction promoter” value is on record as “effective”.

As for `CCCCCCCCCCCCCCCCCC(=O)O` [stearic acid], the “promotion of induction of cellular immunity by addition of a pharmacologically acceptable acid as second cellular immunity induction promoter” value was “effective”.
